From the supplement of paper PMC11061612

Key:
Experiment in all cases: Bliss excess, mean over the matrix (fraction); higher = more synergy
[1] = test system: KP-1N (Pancreatic Carcinoma)
Method in brief: (§1)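 After 24 hours at 37°C and 5% CO2 in 1536-well plates, cells in DMEM/F12 or RPMI plus 10% FBS received two-drug dose matrices for 72 hours. Viability came from CellTiter-Glo 2.0 luminescence and was scaled as inhibition, anchored at 0 by vehicle wells and at 1 by blank wells. Combination Emax is taken as the second-highest inhibition in the matrix, and Bliss excess as the observed combination effect less EA + EB − EA·EB, with EA and EB the single-agent effects.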

[2] = test system: OVCA420 (Ovarian Carcinoma)
Method in brief: as §1

[3] = test system: HCC-78 (Lung Adenocarcinoma)
Method in brief: as §1

NB10 (Neuroblastoma) = test system: NB10 (Neuroblastoma)
Method in brief: as §1

[4] = test system: UM-UC-3 (Bladder Carcinoma)
Method in brief: as §1

[5] = test system: EC-GI-10 (Esophageal Squamous Cell Carcinoma)
Method in brief: as §1

[6] = test system: CCRF-CEM (T-Lymphoblastic Leukemia)
Method in brief: as §1

[7] = test system: DEL (T-Cell Non-Hodgkin's Lymphoma)
Method in brief: as §1

[8] = test system: CaR-1 (Colorectal Carcinoma)
Method in brief: as §1

[9] = test system: NCI-H82 (Small Cell Lung Carcinoma)
Method in brief: as §1

KELLY (Neuroblastoma) = test system: KELLY (Neuroblastoma)
Method in brief: as §1

HOS (Osteosarcoma) = test system: HOS (Osteosarcoma)
Method in brief: as §1

[10] = test system: TE-9 (Esophageal Squamous Cell Carcinoma)
Method in brief: as §1

[11] = test system: COLO-205 (Colorectal Carcinoma)
Method in brief: as §1

[12] = test system: TE-15 (Esophageal Squamous Cell Carcinoma)
Method in brief: as §1

[13] = test system: LS-180 (Colorectal Carcinoma)
Method in brief: as §1

[14] = test system: RO82-W-1 (Thyroid Gland Carcinoma)
Method in brief: as §1

[15] = test system: TCCSUP (Bladder Carcinoma)
Method in brief: as §1

[16] = test system: LB831-BLC (Bladder Carcinoma)
Method in brief: as §1

| Structure (SMILES) | Bliss excess [1] | Bliss excess [2] | Bliss excess [3] | Bliss excess (NB10 (Neuroblastoma)) | Bliss excess [4] | Bliss excess [5] | Bliss excess [6] | Bliss excess [7] | Bliss excess [8] | Bliss excess [9] | Bliss excess (KELLY (Neuroblastoma)) | Bliss excess (HOS (Osteosarcoma)) | Bliss excess [10] | Bliss excess [11] | Bliss excess [12] | Bliss excess [13] | Bliss excess [14] | Bliss excess [15] | Bliss excess [16] |
| --- | --- | --- | --- | --- | --- | --- | --- | --- | --- | --- | --- | --- | --- | --- | --- | --- | --- | --- | --- |
| CCN(CCO)CCCOc1ccc2c(Nc3cc(CC(=O)Nc4cccc(F)c4)[nH]n3)ncnc2c1 [AZD2811] + C[C@@H]1COCCN1C2=NC(=NC(=C2)C3(CC3)[S@](=N)(=O)C)C4=C5C=CNC5=NC=C4 [AZD6738] (first compound max 1 µM, 7x7, partner max 10 µM) | -0.0189 | -0.0777 | 0.0099 | -0.056 | 0.0276 | 0.0182 | -0.0295 | 0.0156 | -0.0528 | -0.0406 | -0.042 | -0.0432 | -0.009 | -0.0872 | -0.0063 | -0.0723 | -0.0543 | 0.0006 | -0.0744 |
| COc1cccc(OCCCN)c1-c1cc(Nc2cnc(C#N)cn2)n[nH]1 [Prexasertib] + O=C(c1cc(Cc2n[nH]c(=O)c3ccccc23)ccc1F)N1CCN(C(=O)C2CC2)CC1 [Olaparib] (first compound max 1 µM, 7x7, partner max 10 µM) | 0.0018 | -0.0374 | -0.0733 | -0.0272 | -0.0015 | -0.0253 | 0.0024 | 0.0035 | -0.0635 | -0.0735 | -0.0742 | -0.0168 | -0.0425 | -0.0301 | -0.0427 | -0.0348 | -0.0731 | -0.006 | -0.0175 |
| CN(C)CCCOc1ccc(-c2ccc3ncc4c(c3c2)n(C2CCOCC2)c(=O)n4C)cn1 [AZD0156] + C=CCn1c(=O)c2cnc(Nc3ccc(N4CCN(C)CC4)cc3)nc2n1-c1cccc(C(C)(C)O)n1 [AZD1775] (first compound max 1 µM, partner max 1 µM) | -0.0207 | -0.0225 | 0.0011 | -0.0093 | -0.007 | -0.0001 | 0.0192 | -0.0036 | -0.0445 | -0.0283 | -0.0002 | -0.0196 | -0.0422 | -0.0229 | -0.0705 | -0.0459 | -0.119 | -0.0651 | -0.104 |
| Cc1cc2ncnn2cc1Nc1ncc2c(n1)n(C1CCOCC1)c(=O)n2C [AZD7648] + CN(C)CCCOc1ccc(-c2ccc3ncc4c(c3c2)n(C2CCOCC2)c(=O)n4C)cn1 [AZD0156] (first compound max 10 µM, 7x7, partner max 1 µM) | -0.0058 | 0.019 | 0.0106 | -0.0024 | 0.014 | 0.0001 | -0.003 | 0.0956 | 0.0399 | 0.0094 | 0.0637 | -0.0172 | 0.009 | 0.0271 | -0.0383 | -0.0443 | -0.129 | -0.011 | -0.0154 |
| COc1cccc(OCCCN)c1-c1cc(Nc2cnc(C#N)cn2)n[nH]1 [Prexasertib] + C=CCn1c(=O)c2cnc(Nc3ccc(N4CCN(C)CC4)cc3)nc2n1-c1cccc(C(C)(C)O)n1 [AZD1775] (first compound max 1 µM, partner max 1 µM) | 0.0763 | 0.0044 | 0.0774 | 0.13 | 0.14 | 0.077 | 0.0186 | 0.0279 | 0.086 | 0.0778 | 0.0252 | 0.0888 | 0.2 | 0.125 | 0.0165 | 0.184 | -0.126 | 0.0389 | 0.168 |
| Cc1cc2ncnn2cc1Nc1ncc2c(n1)n(C1CCOCC1)c(=O)n2C [AZD7648] + C[C@@H]1COCCN1C2=NC(=NC(=C2)C3(CC3)[S@](=N)(=O)C)C4=C5C=CNC5=NC=C4 [AZD6738] (first compound max 10 µM, 7x7, partner max 10 µM) | -0.0035 | 0.0074 | -0.0011 | -0.0306 | 0.0223 | -0.0064 | 0.0206 | 0.0052 | 0.0287 | -0.0596 | 0.0663 | 0.0345 | 0.0252 | 0.0195 | -0.0193 | 0.0003 | 0.0654 | 0.0311 | 0.0485 |
| CCc1c2c(nc3ccc(O)cc13)-c1cc3c(c(=O)n1C2)COC(=O)[C@]3(O)CC [SN-38] + CN(C)CCCOc1ccc(-c2ccc3ncc4c(c3c2)n(C2CCOCC2)c(=O)n4C)cn1 [AZD0156] (first compound max 0.3 µM, 7x7, partner max 1 µM) | 0.0531 | -0.008 | -0.0066 | -0.0533 | 0.06 | 0.0134 | 0.0508 | 0.117 | 0.0109 | 0.0287 | 0.0155 | 0.0114 | 0.0065 | 0.0073 | 0.0146 | 0.0439 | -0.088 | 0.0859 | 0.0223 |
| CN(C)CCCOc1ccc(-c2ccc3ncc4c(c3c2)n(C2CCOCC2)c(=O)n4C)cn1 [AZD0156] + C[C@@H]1COCCN1C2=NC(=NC(=C2)C3(CC3)[S@](=N)(=O)C)C4=C5C=CNC5=NC=C4 [AZD6738] (first compound max 1 µM, 7x7, partner max 10 µM) | 0.0261 | 0.0052 | -0.0031 | -0.038 | 0.0101 | 0.0263 | 0.0002 | 0.0293 | -0.0449 | 0.0286 | 0.0044 | 0.024 | -0.0034 | -0.0057 | -0.0283 | -0.0347 | -0.0649 | -0.0255 | -0.0333 |
